Results: patent US9676760B2, “Fused heterocyclic compounds as ion channel modulators” (Gilead Sciences, Inc., priority 2011, dated 2017)

Molecular target: wild-type human cardiac sodium channel, hNav1.5 (Homo sapiens, UniProt Q14524)
Assay: Late INa screening assay (QPatch whole cell patch clamp, HEK293)
Assay type: cell-based
Settings: compound at 1 μM, 10 μM Tefluthrin; for inhibition at 1 µM: HEK293, percent block of late INa, read-out: Late INa 1 μM
Protocol: The late sodium current (Late INa) and peak sodium current (Peak INa) assays are performed on an automated electrophysiology platform, QPatch 16× (Sophion Bioscience, Copenhagen, Denmark), which uses the whole cell patch clamp technique to measure currents through the cell membrane of up to 16 cells at a time. The assay uses an HEK293 (human embryonic kidney) cell line heterologously expressing the wild-type human cardiac sodium channel, hNav1.5, purchased from Millipore (Billerica, Mass.). No beta subunits were coexpressed with the Na channel alpha subunit. Cells are maintained with standard tissue culture procedures and stable channel expression is maintained with 400 μg/mL Geneticin in the culture medium. Cells isolated for use on QPatch are incubated for 5 minutes in Detachin 1×(Genlantis, San Diego, USA) at 37° C. to ensure that 80-90% of the cells are single and not part of a cell cluster. Experiments are carried out at 23-25° C.
For both the Late INa and Peak INa assays, series resistance compensation is set to 100% and series resistance and whole-cell compensation are performed automatically. Currents are digitized at 25 kHz and low-pass filtered at 12 kHz and 10 kHz for the late and peak INa assays, respectively. Currents through open sodium channels are automatically recorded and stored in the Sophion Bioscience Oracle database (Sophion Bioscience, Copenhagen, Denmark). Analysis is performed using QPatch Assay and database software and data are compiled in Excel.
Compound stocks are routinely made by the Gilead Sample Bank in plastic vials to 10 mM in dimethyl sulfoxide (DMSO). In some cases, when compounds are not soluble in DMSO, they are made in 100% ethanol. Stocks are sonicated as necessary. The extracellular solution for screening Late INa is composed of: 140 mM NaCl, 4 mM KCl, 1.8 mM CaCl2, 0.75 mM MgCl2 and 5 mM HEPES with pH adjusted to 7.4 using NaOH. The intracellular solution used to perfuse the inside of the cells for both the Late INa and Peak INa assays contains: 120 mM CsF, 20 mM CsCl, 5 mM EGTA, 5 mM HEPES and pH adjusted to 7.4 with CsOH. Compounds are diluted in extracellular solution to 1 μM in glass vials and then transferred to glass well plates before robotic addition to the cells. The 0 mM Na extracellular solution (0Na-ECF) used at the end of each experiment for the Late INa and Peak INa assays to measure baseline current contains: 140 mM N-methyl-D-glucamine; 4 mM KCl; 1.8 mM CaCl2; 0.75 mM MgCl2; 5 mM HEPES and pH was adjusted to 7.4 with HCl.
For the Late INa assay, sodium channels are activated every 10 seconds (0.1 Hz) by depolarizing the cell membrane to −20 mV for 250 milliseconds (ms) from a holding potential of −120 mV. In response to a −20 mV voltage step, typical hNav1.5 sodium currents activate rapidly to a peak negative current and then inactivate nearly completely within 3-4 ms.
Compounds were tested to determine their activity in blocking the late sodium current. Late INa was generated by adding 10 μM Tefluthrin (pyrethroid) to the extracellular solution while recording Na currents. […] ATX-II and tefluthrin occupy distinct, non-overlapping binding sites and modify Na^+ channel function differently to increase late INa. […] After establishing the whole cell recording configuration, late INa activator is added to each well 4 times over a 16-17 minute period so that the late component of the Na current reaches a stable value.
Results are reported as percent block of late INa.

wild-type human cardiac sodium channel, hNav1.5, sequence (Q14524 whole entry): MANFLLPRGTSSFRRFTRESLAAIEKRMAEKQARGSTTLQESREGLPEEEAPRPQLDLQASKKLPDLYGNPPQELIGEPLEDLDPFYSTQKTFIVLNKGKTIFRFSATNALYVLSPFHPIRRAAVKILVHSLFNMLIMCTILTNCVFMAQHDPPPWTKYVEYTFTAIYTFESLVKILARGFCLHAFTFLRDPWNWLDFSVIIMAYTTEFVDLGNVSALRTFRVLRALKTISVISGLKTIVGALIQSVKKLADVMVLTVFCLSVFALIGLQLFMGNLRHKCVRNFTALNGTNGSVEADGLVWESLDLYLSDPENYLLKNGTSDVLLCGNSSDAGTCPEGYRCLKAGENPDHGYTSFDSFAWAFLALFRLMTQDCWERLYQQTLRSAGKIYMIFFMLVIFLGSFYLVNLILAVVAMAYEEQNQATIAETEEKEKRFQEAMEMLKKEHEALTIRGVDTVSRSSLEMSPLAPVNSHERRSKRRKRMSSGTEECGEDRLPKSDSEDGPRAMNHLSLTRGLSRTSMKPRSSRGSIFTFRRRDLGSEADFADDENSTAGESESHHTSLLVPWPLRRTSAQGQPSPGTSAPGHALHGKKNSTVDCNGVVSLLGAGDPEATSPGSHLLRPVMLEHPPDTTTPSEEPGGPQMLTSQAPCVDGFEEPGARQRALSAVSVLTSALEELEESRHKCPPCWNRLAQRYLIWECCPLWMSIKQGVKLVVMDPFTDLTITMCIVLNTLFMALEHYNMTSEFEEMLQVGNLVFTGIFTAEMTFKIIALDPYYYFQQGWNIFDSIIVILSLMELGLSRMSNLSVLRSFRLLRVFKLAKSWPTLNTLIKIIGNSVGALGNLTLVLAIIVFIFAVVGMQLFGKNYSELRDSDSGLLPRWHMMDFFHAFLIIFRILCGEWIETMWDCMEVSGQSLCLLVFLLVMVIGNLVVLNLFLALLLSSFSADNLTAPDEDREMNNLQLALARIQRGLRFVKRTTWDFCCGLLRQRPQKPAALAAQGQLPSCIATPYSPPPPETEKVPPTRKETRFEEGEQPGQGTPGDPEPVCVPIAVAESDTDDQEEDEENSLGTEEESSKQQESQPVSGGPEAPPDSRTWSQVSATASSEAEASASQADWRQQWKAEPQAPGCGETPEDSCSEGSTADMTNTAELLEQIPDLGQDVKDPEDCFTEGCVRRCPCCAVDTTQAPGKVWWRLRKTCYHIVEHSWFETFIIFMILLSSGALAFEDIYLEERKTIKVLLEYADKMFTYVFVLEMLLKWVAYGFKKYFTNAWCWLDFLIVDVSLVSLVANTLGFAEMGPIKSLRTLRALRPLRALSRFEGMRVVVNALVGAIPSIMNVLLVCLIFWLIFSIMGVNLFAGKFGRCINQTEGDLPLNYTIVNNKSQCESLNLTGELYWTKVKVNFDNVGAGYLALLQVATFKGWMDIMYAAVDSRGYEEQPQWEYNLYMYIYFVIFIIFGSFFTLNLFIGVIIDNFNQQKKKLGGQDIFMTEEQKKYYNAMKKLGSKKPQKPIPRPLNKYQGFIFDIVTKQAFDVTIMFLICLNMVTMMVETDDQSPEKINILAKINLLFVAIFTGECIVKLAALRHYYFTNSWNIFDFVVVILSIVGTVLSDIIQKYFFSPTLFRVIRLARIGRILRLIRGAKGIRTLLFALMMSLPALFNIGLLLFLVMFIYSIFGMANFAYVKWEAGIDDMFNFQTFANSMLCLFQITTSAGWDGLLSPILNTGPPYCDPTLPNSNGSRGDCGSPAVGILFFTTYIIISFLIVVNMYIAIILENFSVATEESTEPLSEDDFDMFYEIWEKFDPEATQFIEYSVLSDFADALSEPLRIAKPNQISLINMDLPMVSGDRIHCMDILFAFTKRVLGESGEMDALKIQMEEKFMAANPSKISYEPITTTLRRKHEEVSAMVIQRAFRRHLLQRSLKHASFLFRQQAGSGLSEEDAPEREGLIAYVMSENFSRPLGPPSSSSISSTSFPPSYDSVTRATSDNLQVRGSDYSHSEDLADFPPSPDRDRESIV

SMILES | inhibition at 1 µM | Late INa 1 μM (percent block of late INa)
O=C1c2cc(-c3ccc(OCC(F)(F)F)c(F)c3)ccc2OCCN1Cc1ncccn1 [II-106, 7-(3-fluoro-4-(2,2,2-trifluoroethoxy)phenyl)-4-(pyrimidin-2-ylmethyl)-3,4-dihydrobenzo[f][1,4]oxazepin-5(2H)-one] | 18% | 
O=C1c2cc(-c3ccc(OCC(F)(F)F)cc3)ccc2OCCN1Cc1ncccn1 [II-107, 4-(pyrimidin-2-ylmethyl)-7-(4-(2,2,2-trifluoroethoxy)phenyl)-3,4-dihydrobenzo[f][1,4]oxazepin-5(2H)-one] | 18% | 
O=C1c2cc(-c3ccc(OC(F)(F)F)cc3)ccc2OCCN1Cc1nccc(C(F)(F)F)n1 [II-113, 7-(4-(trifluoromethoxy)phenyl)-4-((4-(trifluoromethyl)pyrimidin-2-yl)methyl)-3,4-dihydrobenzo[f][1,4]oxazepin-5(2H)-one] | 27% | 
O=C1c2cc(-c3ccc(OC(F)(F)F)cc3)ccc2OCCN1Cc1ncc(-c2ccc(C(F)(F)F)nc2)cn1 [II-115, 7-(4-(trifluoromethoxy)phenyl)-4-((5-(6-(trifluoromethyl)pyridin-3-yl)pyrimidin-2-yl)methyl)-3,4-dihydrobenzo[f][1,4]oxazepin-5(2H)-one] | 21% | 
N#CC1(c2ccc(-c3ccc4c(c3)C(=O)N(Cc3ncccn3)CCO4)cc2)CCCC1 [II-122, 1-(4-(5-oxo-4-(pyrimidin-2-ylmethyl)-2,3,4,5-tetrahydrobenzo[f][1,4]oxazepin-7-yl)phenyl)cyclopentanecarbonitrile] | 19% | 
CCOc1ccc(-c2ccc3c(c2)C(=O)N(Cc2ncccn2)CCO3)cc1 [II-123, 7-(4-ethoxyphenyl)-4-(pyrimidin-2-ylmethyl)-3,4-dihydrobenzo[f][1,4]oxazepin-5(2H)-one] | 21% | 
O=C1c2cc(-c3ccc(C(F)F)cc3)ccc2OCCN1Cc1ncccn1 [II-124, 7-(4-(difluoromethyl)phenyl)-4-(pyrimidin-2-ylmethyl)-3,4-dihydrobenzo[f][1,4]oxazepin-5(2H)-one] | 17% | 
O=C1c2cc(-c3ccc(OC(F)(F)F)cc3)ccc2OCCN1Cc1nccc(N2CCOCC2)n1 [II-133] | 23% | 
O=C1c2cc(-c3ccc(C(F)(F)F)cc3)ccc2OCCN1Cc1cn2ccccc2n1 [II-135, 4-(imidazo[1,2-a]pyridin-2-ylmethyl)-7-(4-(trifluoromethyl)phenyl)-3,4-dihydrobenzo[f][1,4]oxazepin-5(2H)-one] |  | 32%
O=C1c2cc(-c3ccc(C(F)(F)F)c(F)c3)ccc2OCCN1Cc1ncccn1 [II-136, 7-(3-fluoro-4-(trifluoromethyl)phenyl)-4-(pyrimidin-2-ylmethyl)-3,4-dihydrobenzo[f][1,4]oxazepin-5(2H)-one] | 30% | 
O=C1c2cc(-c3ccc(OC(F)(F)F)cc3)ccc2OCCN1Cc1nccc(N2CCCCC2)n1 [II-139, 4-((4-(piperidin-1-yl)pyrimidin-2-yl)methyl)-7-(4-(trifluoromethoxy)phenyl)-3,4-dihydrobenzo[f][1,4]oxazepin-5(2H)-one] | 31% | 
CN(C)c1ccnc(CN2CCOc3ccc(-c4ccc(OC(F)(F)F)cc4)cc3C2=O)n1 [II-140, 4-((4-(dimethylamino)pyrimidin-2-yl)methyl)-7-(4-(trifluoromethoxy)phenyl)-3,4-dihydrobenzo[f][1,4]oxazepin-5(2H)-one] | 32% | 
O=C1NC(Cc2ccccn2)COc2ccc(-c3ccc(OC(F)(F)F)cc3)cc21 (stereo not drawn) [II-142, 3-(pyridin-2-ylmethyl)-7-(4-(trifluoromethoxy)phenyl)-3,4-dihydrobenzo[f][1,4]oxazepin-5(2H)-one] | 19% | 
Cc1cc(C(F)(F)F)ccc1-c1ccc2c(c1)C(=O)N(Cc1ncccn1)CCO2 [II-145, 7-(2-methyl-4-(trifluoromethyl)phenyl)-4-(pyrimidin-2-ylmethyl)-3,4-dihydrobenzo[f][1,4]oxazepin-5(2H)-one] | 19% | 
Cc1cc(OC(F)(F)F)ccc1-c1ccc2c(c1)C(=O)N(Cc1ncccn1)CCO2 [II-146, 7-(2-methyl-4-(trifluoromethoxy)phenyl)-4-(pyrimidin-2-ylmethyl)-3,4-dihydrobenzo[f][1,4]oxazepin-5(2H)-one] | 36% | 
O=C1c2cc(-c3ccc(OC(F)(F)F)cc3)ccc2OCCN1Cn1ccc(C(F)(F)F)n1 [II-148, 7-(4-(trifluoromethoxy)phenyl)-4-((3-(trifluoromethyl)-1H-pyrazol-1-yl)methyl)-3,4-dihydrobenzo[f][1,4]oxazepin-5(2H)-one] | 17% | 
O=C1c2cc(-c3ccc(CC(F)(F)F)cc3)ccc2OCCN1Cc1ncccn1 [II-150, 4-(pyrimidin-2-ylmethyl)-7-(4-(2,2,2-trifluoroethyl)phenyl)-3,4-dihydrobenzo[f][1,4]oxazepin-5(2H)-one] | 27% | 
O=C1c2cc(-c3ccc(OC(F)(F)F)cc3)ccc2OCCN1Cc1ccn(C2CCCC2)n1 [II-152, 4-((1-cyclopentyl-1H-pyrazol-3-yl)methyl)-7-(4-(trifluoromethoxy)phenyl)-3,4-dihydrobenzo[f][1,4]oxazepin-5(2H)-one] | 23% | 
Cn1cnc(CN2CCOc3ccc(-c4ccc(OC(F)(F)F)cc4)cc3C2=O)c1 [II-154, 4-((1-methyl-1H-imidazol-4-yl)methyl)-7-(4-(trifluoromethoxy)phenyl)-3,4-dihydrobenzo[f][1,4]oxazepin-5(2H)-one] | 25% | 
O=C1c2cc(-c3ccc(OC(F)F)cc3)ccc2OCCN1Cc1ccccn1 [II-159, 7-(4-(difluoromethoxy)phenyl)-4-(pyridin-2-ylmethyl)-3,4-dihydrobenzo[f][1,4]oxazepin-5(2H)-one] | 28% | 
Cn1cc(CN2CCOc3ccc(-c4ccc(OC(F)(F)F)cc4)cc3C2=O)cn1 [II-160, 4-((1-methyl-1H-pyrazol-4-yl)methyl)-7-(4-(trifluoromethoxy)phenyl)-3,4-dihydrobenzo[f][1,4]oxazepin-5(2H)-one] | 48% | 
O=C1c2cc(-c3ccc(F)c(F)c3F)ccc2OCCN1Cc1ncccn1 [II-162, 4-(pyrimidin-2-ylmethyl)-7-(2,3,4-trifluorophenyl)-3,4-dihydrobenzo[f][1,4]oxazepin-5(2H)-one] | 20% | 
O=C1c2cc(-c3ccc(F)c(F)c3)ccc2OCCN1Cc1ncccn1 [II-163, 7-(3,4-difluorophenyl)-4-(pyrimidin-2-ylmethyl)-3,4-dihydrobenzo[f][1,4]oxazepin-5 (2H)-one] | 28% | 
O=C1c2cc(-c3ccc(OC(F)(F)F)cc3)ccc2OCCN1Cc1ncccc1F [II-164, 4-((3-fluoropyridin-2-yl)methyl)-7-(4-(trifluoromethoxy)phenyl)-3,4-dihydrobenzo[f][1,4]oxazepin-5(2H)-one] | 75% | 
O=C1c2cc(-c3ccc(OS(=O)(=O)C(F)(F)F)cc3)ccc2OCCN1Cc1ncccn1 [II-171, 4-(5-oxo-4-(pyrimidin-2-ylmethyl)-2,3,4,5-tetrahydrobenzo[f][1,4]oxazepin-7-yl)phenyl trifluoromethanesulfonate] | 24% | 
Cc1cnc(CN2CCOc3ccc(-c4ccc(OC(F)(F)F)cc4)cc3C2=O)cn1 [II-172, 4-((5-methylpyrazin-2-yl)methyl)-7-(4-(trifluoromethoxy)phenyl)-3,4-dihydrobenzo[f][1,4]oxazepin-5(2H)-one] | 33% | 
[2H]C1([2H])Oc2ccc(-c3ccc(OC(F)(F)F)cc3)cc2C(=O)N(Cc2ncccn2)C1([2H])[2H] [II-174, 2,2,3,3-tetradeutero-4-(pyrimidin-2-ylmethyl)-7-(4-(trifluoromethoxy)phenyl)-3,4-dihydrobenzo[f][1,4]oxazepin-5(2H)-one] | 48% | 
